Where “and” joins values, the source holds several entries; their conditions need not be identical. Equal entries are not always repeated. Numbers after ± are expanded uncertainties.
Conditions: Liquid, Hot wire method

With `CCCCOCCO` [2-butoxyethan-1-ol] the thermal conductivity (304.15 K, 100 kPa) was 0.1529 ± 0.001 W/m/K and 0.1533 ± 0.001 W/m/K, the thermal conductivity (304.15 K, 16400 kPa) was 0.1579 ± 0.001 W/m/K and the thermal conductivity (304.15 K, 27300 kPa) was 0.1612 ± 0.001 W/m/K. It also gave a thermal conductivity (304.15 K, 41800 kPa) of 0.1646 ± 0.001 W/m/K, a thermal conductivity (304.15 K, 56100 kPa) of 0.1689 ± 0.0011 W/m/K and a thermal conductivity (304.15 K, 70200 kPa) of 0.1722 ± 0.0011 W/m/K. For the same compound, the thermal conductivity (304.15 K, 79000 kPa) was 0.174 ± 0.0011 W/m/K, the thermal conductivity (304.15 K, 83500 kPa) was 0.1749 ± 0.0011 W/m/K and the thermal conductivity (304.15 K, 98200 kPa) was 0.1785 ± 0.0011 W/m/K. For the same compound, the thermal conductivity (304.15 K, 112200 kPa) was 0.182 ± 0.0011 W/m/K, the thermal conductivity (304.15 K, 124100 kPa) was 0.1836 ± 0.0011 W/m/K and the thermal conductivity (304.15 K, 140100 kPa) was 0.187 ± 0.0012 W/m/K. The thermal conductivity (304.15 K, 149200 kPa) was 0.1885 ± 0.0012 W/m/K, the thermal conductivity (321.15 K, 100 kPa) was 0.1497 ± 0.0009 W/m/K and 0.1496 ± 0.0009 W/m/K and the thermal conductivity (321.15 K, 16400 kPa) was 0.1548 ± 0.001 W/m/K. The thermal conductivity (321.15 K, 27300 kPa) was 0.1585 ± 0.001 W/m/K, the thermal conductivity (321.15 K, 41800 kPa) was 0.1628 ± 0.001 W/m/K and the thermal conductivity (321.15 K, 56100 kPa) was 0.1665 ± 0.001 W/m/K. The thermal conductivity (321.15 K, 70200 kPa) was 0.1701 ± 0.0011 W/m/K, the thermal conductivity (321.15 K, 84200 kPa) was 0.1739 ± 0.0011 W/m/K and the thermal conductivity (321.15 K, 98200 kPa) was 0.177 ± 0.0011 W/m/K. For the same compound, the thermal conductivity (321.15 K, 112200 kPa) was 0.18 ± 0.0011 W/m/K, the thermal conductivity (321.15 K, 126200 kPa) was 0.183 ± 0.0011 W/m/K and the thermal conductivity (321.15 K, 134900 kPa) was 0.1851 ± 0.0011 W/m/K. For the same compound, the thermal conductivity (321.15 K, 150600 kPa) was 0.1879 ± 0.0012 W/m/K, the thermal conductivity (338.15 K, 100 kPa) was 0.1461 ± 0.0009 W/m/K and 0.1463 ± 0.0009 W/m/K and the thermal conductivity (338.15 K, 16400 kPa) was 0.1518 ± 0.001 W/m/K. For the same compound, the thermal conductivity (338.15 K, 27300 kPa) was 0.1555 ± 0.001 W/m/K, the thermal conductivity (338.15 K, 41800 kPa) was 0.1601 ± 0.001 W/m/K and the thermal conductivity (338.15 K, 56100 kPa) was 0.164 ± 0.001 W/m/K. For the same compound, the thermal conductivity (338.15 K, 70200 kPa) was 0.1677 ± 0.001 W/m/K, the thermal conductivity (338.15 K, 84200 kPa) was 0.1717 ± 0.0011 W/m/K and the thermal conductivity (338.15 K, 98200 kPa) was 0.1751 ± 0.0011 W/m/K. For the same compound, the thermal conductivity (338.15 K, 108700 kPa) was 0.1775 ± 0.0011 W/m/K, the thermal conductivity (338.15 K, 123400 kPa) was 0.1807 ± 0.0011 W/m/K and the thermal conductivity (338.15 K, 140100 kPa) was 0.1844 ± 0.0011 W/m/K.

From the NIST ThermoML archive (doi:10.1021/je1007197)
